The nature of data set [1]: 5-way crossover study in healthy volunteers: adverse events by administration form. The format is in vivo, human. An excerpt:
(§1) 23 subject (12 men and 11 women) participated in the trial; due to drop-outs however, not all 23 subjects received all five treatments—see below for details.
The proximal small bowel is approximately the first meter of the jejunum, and the distal small bowel is approximately the last meter of the ileum, including terminal ileum up to the ileo-caecal junction.
The Enterion™ capsule allows targeted delivery of an active substance into any region of the GI tract. The capsule contains a drug reservoir and a separate compartment for a radioactive tracer. The floor of the reservoir acts a piston which is held back against a spring by a polymer filament. By means of gamma scintigraphy (an imaging technique) the exact position of the capsule in the GI tract can be determined real-time. When the capsule has reached its desired position in the GI tract, a magnetic field is applied which causes an antenna in the capsule all to heat up. The heated antenna is in contact with the polymer filament which softens and eventually breaks which sets the piston (reservoir floor) free and rapidly releases the drug. The Enterion™ capsule is available from Partner Tech, UK.
(§2) Blood samples were obtained at regular intervals 240 hours post-dosing of the IR tablet, post-start of the infusion and post-activation of the Enterion™ capsule. […] Additionally, adverse events were recorded. Food (soup) was provided 4 hours post-dose and dinner 10 hours post-dose.
All 23 subjects received treatments A and B; 22 subjects received treatment C; 20 subjects received treatment D; and 19 received treatment E.
The table below summarises the adverse events recorded during the course of the trial.

Data set [2] concerns acetylcholine, norepinephrine, dopamine, and serotonin in brain regions associated with mood regulation. The following applies: extracellular levels in rat brains; cited from earlier work.
Data set [3] in a line: 5-way crossover study in healthy volunteers: plasma concentration-time profile. In kind it is in vivo, human. How it is done:
as §1, §2
The plasma concentration time profiles are depicted in FIG. 1.

For data set [4] the following is noted: cited from earlier work.
For data set [5] the following is noted: depressed patients; cited from earlier work.
[6] abbreviates: Regimen B: 20 mg, single oral dose, two 10 mg IR tablets, 23 subjects.
[7] abbreviates: Regimen C: 9 mg iv infusion over 6 hours, 22 subjects.
Setting [8] is: Regimen D: 20 mg solution via Enterion capsule to proximal small bowel, 20 subjects.
Where [9] appears, read: Regimen E: 20 mg solution via Enterion capsule to distal small bowel, 19 subjects.

Structures are written as SMILES. Entries after “also recorded” stand apart in the source; their conditions may differ.

On to `Br.Cc1ccc(Sc2ccccc2N2CCNCC2)c(C)c1` [Compound I HBr, 1-[2-(2,4-dimethyl-phenylsulfanyl)-phenyl]piperazine hydrobromide], for which, in data set [1] (setting [6]), the Abdominal pain is recorded as 2 no of subjects, the Fatigue is given as 2 no of subjects, the Headache was 3 no of subjects and the “Lightheadedness/postural dizziness (no BP drop)” value is 5 no of subjects. For the same molecule, in data set [1] (setting [6]), the Nausea is on record as 9 no of subjects, the Retching is 1 no of subjects and the Vomiting was 2 no of subjects. Further, in data set [1] (setting [7]), the “Abnormal liver function tests” value is given as 1 no of subjects, the Headache was 2 no of subjects, the Nausea is reported as 1 no of subjects and the Postural hypotension is listed as 2 no of subjects. Also, in data set [1] (setting [8]), the Abdominal pain was 1 no of subjects, the Headache was 1 no of subjects, the “Lightheadedness/postural dizziness (no BP drop)” value was 1 no of subjects and the Nausea is listed as 3 no of subjects. In addition, in data set [1] (setting [8]), the Postural hypotension was 1 no of subjects, the Pruritis is on record as 1 no of subjects and the Vomiting is listed as 1 no of subjects. In data set [1] (setting [9]), the Abdominal pain is given as 1 no of subjects, the Nausea is 2 no of subjects, the Postural hypotension is 3 no of subjects and the Rash is reported as 1 no of subjects.
Turning to `Cc1ccc(Sc2ccccc2N2CCNCC2)c(C)c1` [Compound I, 1-[2-(2,4-dimethyl-phenylsulfanyl)-phenyl]piperazine], the “overall number of adverse events” value in data set [1] (regimen B, IR tablet) is reported as “most adverse events”. Also, in data set [1] (regimen C, D and E: i.v. infusion, released in the proximal or distal small bowel), the “overall number of adverse events” value is “markedly lower number of adverse events”. The “levels of acetylcholine, norepinephrine (noradrenaline), dopamine and serotonin in brain” value in data set [2] is given as “increase; also recorded: significant increases”. Further, the “plasma concentration-time profile, dependence on administration form” value in data set [3] (IR tablet versus release in the small intestine (FIG. 1, regimens B, D, E)) is given as “virtually independent on whether Compound I is administered in an IR tablet or released in the small intestine”. Further, in data set [3] (administration in an IR composition), the “characteristics of plasma concentration-time profile” value was “relative late tmax and a plasma concentration plateau around tmax”. Besides, the “sleep and sexually related adverse events in depressed patients” value in data set [4] (clinical trials disclosed in WO 2008/113359) is on record as “surprisingly low level”. In data set [4] (dosed at 5 and 10 mg), the “efficacy in the treatment of major depressive disorder” value is “efficacious”; the “safety and tolerability in first clinical trial” value was “safe and well-tolerated”.
On to `Fc1ccc([C@@H]2CCNC[C@H]2COc2ccc3c(c2)OCO3)cc1` [paroxetine], for which, in data set [5], the “nausea with enteric coated, sustained release tablet compared with IR tablet” value is “less nausea”; the “other GI related adverse events such as diarrhea, abnormal ejaculation, female genital disorders and dizziness with enteric coated tablet compared with IR tablet” value was “appeared to increase”.

The values are drawn from patent US20160256398A1 (H. Lundbeck A/S, priority 2009, published 2016).
